One may read the IC50 as the concentration needed to halve the response being measured.

The source of these data is patent publication US12534469B2 (CHILDREN'S HOSPITAL MEDICAL CENTER, priority 2020, dated 2026).

One assay relates to MOLM14 D835Y cells. Kind of assay: MOLM14 D835Y cell viability assay (Cell Titer Glo). It counts as cell-based. An outline of the steps:
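MOLM14 cells carrying FLT3 D835Y or F691L were seeded at 1000 cells/well in RPMI-1640 with 20% FBS and dosed at 22 concentrations, 1:2 dilutions from 10 μM. Viability after 48 h by Cell Titer Glo luminescence; 2.3 μM bortezomib as cytotoxic control.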

Another assay has as its target T1, FLT3 (Homo sapiens, UniProt P36888).
T1 construct: purchased Reaction Biology (RBC HotSpot Kinase Assay)
T1 sequence (P36888 564-958 limits assumed): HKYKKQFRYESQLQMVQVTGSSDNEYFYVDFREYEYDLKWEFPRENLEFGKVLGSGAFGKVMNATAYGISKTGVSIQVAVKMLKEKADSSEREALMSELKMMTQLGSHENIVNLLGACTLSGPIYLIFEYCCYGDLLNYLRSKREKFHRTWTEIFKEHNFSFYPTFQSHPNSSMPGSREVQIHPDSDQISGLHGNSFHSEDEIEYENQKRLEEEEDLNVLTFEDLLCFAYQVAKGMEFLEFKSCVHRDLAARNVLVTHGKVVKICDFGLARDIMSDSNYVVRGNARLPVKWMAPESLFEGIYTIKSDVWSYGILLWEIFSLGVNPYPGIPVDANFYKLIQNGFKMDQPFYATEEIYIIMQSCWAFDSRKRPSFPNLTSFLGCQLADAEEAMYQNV
Kind of assay: RBC HotSpot Kinase Assay, FLT3. It counts as biochemical. Put shortly: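 Radiometric filter-binding (HotSpot) activity assay on isolated recombinant kinase, possibly truncated or catalytic domain only, in 20 mM Hepes pH 7.5, 10 mM MgCl2, 1 mM EGTA, 2 mM DTT, 1% DMSO. Compound preincubated 20 min with kinase and substrate, then ^33P-ATP added. Reaction 2 h at room temperature, read by P81 filter binding.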

The next assay deals with MOLM14 F691L cells. Kind of assay: MOLM14 F691L cell viability assay (Cell Titer Glo). It counts as cell-based. As for the experimental part:
Both cell lines have activated FLT3 receptors, each of which carry additional resistance mutations in the kinase domain (D835Y and F691L, respectively).
MOLM14 D835Y and MOLM14 F691L cells were grown in RPMI-1640 media supplemented with 20% fetal bovine serum (FBS). For viability/cytotoxicity assessments, cells were seeded into 1536-well white polystyrene tissue culture-treated Greiner plates using a Multidrop Combi dispenser (ThermoFisher), in final volume 5 μL of growth media per well, at a density of 1000 cells per well. After cell addition, 23 nL of test compound were transferred into individual wells (22 doses tested for each test compound, with a 1:2 dilution series starting at 10 μM) via a 1536 pin-tool. Bortezomib (final concentration 2.3 μM) was used as a positive control for cell cytotoxicity. Plates were incubated for 48 hours at standard incubator conditions covered by a stainless steel gasketed lid to prevent evaporation. 48 hours post compound addition, 3 μL of Cell Titer Glo (Promega) were added to each well and plates were incubated at room temperature for 15 minutes with the stainless-steel lid in place. Luminescence readings were taken using a Viewlux imager (PerkinElmer) with a 2 second exposure time per plate.
A general note: ATP-based viability assays read luminescence as a measure of living cells.

The test system of another assay is THP-1-Blue NF-κB cells. Kind of assay: NF-kB SEAP reporter assay in THP-1-Blue NF-κB cells. It counts as cell-based. Particulars: 24 hours. As for the experimental part: THP-1-Blue NF-κB cells (InvivoGen) carrying a stable integrated NF-κB-inducible secreted embryonic alkaline phosphatase (SEAP) reporter construct were plated at a concentration of 1×10^5 cells per well. The cells were stimulated with Pam3CSK4 (1 ng/mL) or hIL1B (1 ng/mL). After 10-20 minutes, the cells were then treated with vehicle (DMSO) or serial dilutions of the test compounds (10 doses tested for each test compound, with a 1:10 dilution series starting at 1 μM or 3 μM) with a final volume of 200 μL for 24 hours at 37° C. After 24 hours, the cells were centrifuged and 20 μL supernatant was incubated with 180 μL QUANTI-Blue reagent at 37° C. for 30-60 minutes. The levels of NF-κB-induced gene expression were measured in a microplate reader at 620 nm.

Where [1] appears, read: stimulated with Pam3CSK4 (1 ng/mL), read-out: NF-κB Pam3SCK4 IC50.
The mark [2] stands for this setting: stimulated with hIL1B (1 ng/mL), read-out: NF-κB IL1B IC50.

SMILES strings stand for the structures. Read-outs that look alike come from different tables or passages of the source. Bounds are passed on as bounds.

As for `COc1cc2ncc(-c3cccc(N[C@H]4CNC[C@@H]4F)n3)n2nc1C(C)(O)C(F)(F)F` (single isomer, unassigned; fast-eluting) [Compound 133], the IC50 in the assay on MOLM14 D835Y cells (48 hours) is 86 nM; against FLT3, < 0.5 nM; in the assay on MOLM14 F691L cells (48 hours), 969 nM.

Take `F[C@H]1CNC[C@@H]1Nc1cccc(-c2cnc3ccc(-c4cnn5ccccc45)nn23)n1` [Compound 9, N-((3S,4S)-4-fluoropyrrolidin-3-yl)-6-(6-(pyrazolo[1,5-a]pyridin-3-yl)imidazo[1,2-b]pyridazin-3-yl)pyridin-2-amine]: the IC50 in the assay on MOLM14 D835Y cells (Homo sapiens, MOLM-14, 48 h) is 101 nM; at FLT3 it was < 0.5 nM.

As to `c1cc(N[C@@H]2CCCNC2)nc(-c2cnc3ccc(-c4cnn5ccccc45)nn23)c1` [Compound 19, (R)-N-(piperidin-3-yl)-6-(6-(pyrazolo[1,5-a]pyridin-3-yl)imidazo[1,2-b]pyridazin-3-yl)pyridin-2-amine], the IC50 is 402 nM in the assay with MOLM14 D835Y cells (Homo sapiens, MOLM-14, 48 h) and < 0.5 nM on FLT3.

As to `COc1cc2ncc(-c3cccc(N[C@H]4CNC[C@@H]4F)n3)n2nc1C1CC1` [Compound 96, 6-(6-cyclopropyl-7-methoxyimidazo[1,2-b]pyridazin-3-yl)-N-((3S,4S)-4-fluoropyrrolidin-3-yl)pyridin-2-amine], the IC50 with MOLM14 D835Y cells (Homo sapiens, MOLM-14, 48 h) is 55 nM; on FLT3 it was 0.6 nM; with THP-1-Blue NF-κB cells (setting [1]), 93 nM; in the assay with THP-1-Blue NF-κB cells (setting [2]) it was 121 nM; in the assay with MOLM14 F691L cells (Homo sapiens, MOLM-14, 48 h), 673 nM.

Regarding `COc1cc2ncc(-c3cccc(N[C@@H]4CCNC4)n3)n2nc1C1CC1` [Compound 97, (R)-6-(6-cyclopropyl-7-methoxyimidazo[1,2-b]pyridazin-3-yl)-N-(pyrrolidin-3-yl)pyridin-2-amine], the IC50 in the assay on MOLM14 D835Y cells (Homo sapiens, MOLM-14, 48 h) came to 34 nM; against FLT3 it was 0.6 nM.

Take `COc1cc2ncc(-c3cccc(N[C@H]4CNC[C@@H]4C(F)(F)F)n3)n2nc1C1CC1` [Compound 99, 6-(6-cyclopropyl-7-methoxyimidazo[1,2-b]pyridazin-3-yl)-N-((3R,4S)-4-(trifluoromethyl)pyrrolidin-3-yl)pyridin-2-amine]: the IC50 in the assay on MOLM14 D835Y cells (Homo sapiens, MOLM-14, 48 h) is 17 nM; against FLT3, 0.6 nM; in the assay with THP-1-Blue NF-κB cells (setting [1]), 121 nM; with THP-1-Blue NF-κB cells (setting [2]), 340 nM; in the assay on MOLM14 F691L cells (Homo sapiens, MOLM-14, 48 h), 269 nM.

For the compound `COc1cc2ncc(-c3cccc(N[C@H]4CNCC[C@@H]4F)n3)n2nc1C1CC1` [Compound 102, 6-(6-cyclopropyl-7-methoxyimidazo[1,2-b]pyridazin-3-yl)-N-((3S,4S)-4-fluoropiperidin-3-yl)pyridin-2-amine], the IC50 in the assay on MOLM14 D835Y cells (Homo sapiens, MOLM-14, 48 h) was 34 nM; against FLT3 it was < 0.5 nM; in the assay on THP-1-Blue NF-κB cells (setting [1]), 135 nM; in the assay on THP-1-Blue NF-κB cells (setting [2]), 254 nM; in the assay with MOLM14 F691L cells (Homo sapiens, MOLM-14, 48 h), 388 nM.

As to `COc1cc2ncc(-c3nc(N[C@@H]4CCCNC4)c(F)cc3F)n2nc1C1CC1` [Compound 106, (R)-6-(6-cyclopropyl-7-methoxyimidazo[1,2-b]pyridazin-3-yl)-3,5-difluoro-N-(piperidin-3-yl)pyridin-2-amine], the IC50 with MOLM14 D835Y cells (Homo sapiens, MOLM-14, 48 h) is 3 nM; against FLT3, < 0.5 nM; in the assay with THP-1-Blue NF-κB cells (setting [1]), 63 nM; in the assay on THP-1-Blue NF-κB cells (setting [2]), 59 nM; in the assay on MOLM14 F691L cells (Homo sapiens, MOLM-14, 48 h) it was 29 nM.

For `COc1cc2ncc(-c3nc(N[C@H]4CNC[C@@H]4F)c(F)cc3F)n2nc1C1CC1` [Compound 107, 6-(6-cyclopropyl-7-methoxyimidazo[1,2-b]pyridazin-3-yl)-3,5-difluoro-N-((3S,4S)-4-fluoropyrrolidin-3-yl)pyridin-2-amine], the IC50 was 11 nM in the assay on MOLM14 D835Y cells (Homo sapiens, MOLM-14, 48 h); < 0.5 nM on FLT3; 18 nM with THP-1-Blue NF-κB cells (setting [1]); 15 nM in the assay with THP-1-Blue NF-κB cells (setting [2]); 137 nM in the assay with MOLM14 F691L cells (Homo sapiens, MOLM-14, 48 h).

With `COc1cc2ncc(-c3nc(N[C@H]4CNCC[C@@H]4F)c(F)cc3F)n2nc1C1CC1` [Compound 108, 6-(6-cyclopropyl-7-methoxyimidazo[1,2-b]pyridazin-3-yl)-3,5-difluoro-N-((3S,4S)-4-fluoropiperidin-3-yl)pyridin-2-amine], the IC50 is 3 nM in the assay with MOLM14 D835Y cells (Homo sapiens, MOLM-14, 48 h); < 0.5 nM on FLT3; 30 nM with THP-1-Blue NF-κB cells (setting [1]); 13 nM in the assay on THP-1-Blue NF-κB cells (setting [2]); 29 nM with MOLM14 F691L cells (Homo sapiens, MOLM-14, 48 h).

For the compound `COc1cc2ncc(-c3nc(N[C@H]4CNC[C@@H]4F)c(F)cc3F)n2nc1C(C)(C)O` [Compound 126, 2-(3-(3,5-difluoro-6-(((3S,4S)-4-fluoropyrrolidin-3-yl)amino)pyridin-2-yl)-7-methoxyimidazo[1,2-b]pyridazin-6-yl)propan-2-ol], the IC50 in the assay with MOLM14 D835Y cells (Homo sapiens, MOLM-14, 48 h) was 109 nM; against FLT3, < 0.5 nM; in the assay on THP-1-Blue NF-κB cells (setting [1]), 92 nM; in the assay with THP-1-Blue NF-κB cells (setting [2]), 121 nM; in the assay on MOLM14 F691L cells (Homo sapiens, MOLM-14, 48 h), 1540 nM.

In the case of `COc1cc2ncc(-c3nc(N[C@@H]4CCCNC4)c(F)cc3F)n2nc1C(C)(C)O` [Compound 127, (R)-2-(3-(3,5-difluoro-6-(piperidin-3-ylamino)pyridin-2-yl)-7-methoxyimidazo[1,2-b]pyridazin-6-yl)propan-2-ol], the IC50 with MOLM14 D835Y cells (Homo sapiens, MOLM-14, 48 h) was 1220 nM; on FLT3 it was < 0.5 nM; in the assay on THP-1-Blue NF-κB cells (setting [1]) it was 254 nM; with THP-1-Blue NF-κB cells (setting [2]) it was 359 nM; in the assay on MOLM14 F691L cells (Homo sapiens, MOLM-14, 48 h) it was 6120 nM.

With `COc1cc2ncc(-c3nc(N[C@H]4CNCC[C@@H]4F)c(F)cc3F)n2nc1C(C)(C)O` [Compound 128, 2-(3-(3,5-difluoro-6-(((3S,4S)-4-fluoropiperidin-3-yl)amino)pyridin-2-yl)-7-methoxyimidazo[1,2-b]pyridazin-6-yl)propan-2-ol], the IC50 in the assay with MOLM14 D835Y cells (Homo sapiens, MOLM-14, 48 h) was 34 nM; on FLT3, < 0.5 nM; with THP-1-Blue NF-κB cells (setting [1]), 108 nM; with THP-1-Blue NF-κB cells (setting [2]), 196 nM; with MOLM14 F691L cells (Homo sapiens, MOLM-14, 48 h) it was 386 nM.
